Assay results published in US20190262261A1, “RADIATION SENSITIZER OR ANTI-CANCER CHEMOTHERAPY SENSITIZER” (priority 2006, published 2019).

Tests used:
[1] = Pain on intratumoral injection into SCCVII tumors of mice; assay type: in vivo, C3H/He mouse; settings: 1 ml, 27-gage needle, pH 6.8, 0.5% hydrogen peroxide, five mice per group, tumor about 10 mm
Protocol: (1) Mouse squamous epithelium cancer cells (SCCVII tumor cells) were transplanted into the right leg of the same kind of C3H/He mouse (8-week-old female), and the following experiment was conducted when the tumor had grown to about 10 mm in diameter.
When a 27-gage thin needle was used to intratumorally inject 1 ml of physiological saline (pH 6.8) containing 0.5% hydrogen peroxide into the tumors of five mice, the mice were all observed to feel strong pain, violently resisting the injection.

[2] = tested on: radioresistant osteosarcoma cell lines (HS-Os-1); settings: 0.1 mM in culture solution, radiation in the order of 10 Gy; cited from earlier work
[3] = Pain on subcutaneous injection in normal volunteers; assay type: in vivo, human; settings: 1 ml subcutaneous, pH 6.8, 0.5% hydrogen peroxide
Protocol: (2) Based on the above results, the following experiment was conducted on five normal volunteers.
When a 27-gage thin needle was used to subcutaneously inject 1 ml of physiological saline (pH 6.8) containing 0.5% hydrogen peroxide into the inside of the left arms of five normal volunteers, all complained of severe pain limited to the injection site that lasted about 1 hour.

[4] = tested on: inoperable locally advanced malignant melanoma
Protocol: For a case of inoperable locally advanced malignant melanoma, sterilized cut cotton soaked in a hydrogen peroxide solution having a concentration of approximately 3 weight percent was used as a bolus, and irradiation by an electron beam from a linear accelerator (radiosensitization therapy) was then conducted.
Specifically, sterilized cut cotton soaked in a hydrogen peroxide solution having a concentration of approximately 3% was applied to the affected area of the locally advanced malignant melanoma as a bolus, and irradiation was conducted three times a week for four weeks, with each radiation dose amounting to 4 Gy (12 times, for a total radiation dosage of 48 Gy).

pain of the intratumoral injection [1]: strong pain | pain at the injection site ([3]; inside of arm, 27-gage needle, five volunteers): severe pain | duration of pain at the injection site ([3]; left arm): about 1 hour
Compound: OO [hydrogen peroxide]
effect on irradiated cells (reactive oxygen species, apoptosis) [2]: giving rise to apoptosis | length of malignant melanoma ([4]; 2 weeks after RT, approximately 3% solution on cut cotton as bolus, 4 Gy x 12, total 48 Gy, approximately 8 cm before radiotherapy): approximately 5 cm | tumor outcome (summary in disclosure) ([4]; approximately 3 weight percent solution as bolus, 4 Gy three times a week, total 48 Gy): disappearance of the tumor | tumor outcome ([4]; three months after termination of radiotherapy, approximately 3% solution as bolus, total 48 Gy): almost disappeared
